The record followed here is paper PMC3206494, “Discovery of potent, novel, non-toxic anti-malarial compounds via quantum modelling, virtual screening and in vitro experimental validation” (Malaria Journal, 2011).

Like-named read-outs stand apart in the source and are kept apart here.

Series [1] has as its system P. falciparum. Briefly: In vitro anti-malarial activity, [3H]-hypoxanthine incorporation assay. The format is cell-based. The note with it: Plasmodium falciparum. As for the experimental part: The in vitro anti-malarial activity was measured using the [3H]-hypoxanthine incorporation assay with various strains of P. falciparum (Roche). Results were expressed as the concentration corresponding to 50% inhibition. The anti-malarial assays were performed at the Swiss Tropical Institute, Basel, Switzerland.

The nature of series [2]: Solubility in DMSO (footnote to Table 2). It counts as physicochemical. Details: key: *: Not fully soluble in DMSO. The note with it: footnote mark on the anti-malarial activity value. An excerpt: Table 2 Summary of anti-malarial activity and cytotoxicity | column: Average Anti-malarial Activity**(ng/ml)
Series [3] has as its system mammalian cytotoxicity. Briefly: Toxicity assay, colorimetric MTT assay (mammalian cytotoxicity). The format is cell-based. Conditions: data from two independent assays. On the procedure:
Toxicity was determined by using the colorimetric 3-(4,5-dimethylthiazol-2-yl)-2,5-diphenyltetrazoliumbromide (MTT) assay. The toxicity assays were performed at the Swiss Tropical Institute, Basel, Switzerland.

Setting [4] is: P. falciparum, in vitro, read-out: IC50 (anti-malarial activity).
The mark [5] stands for this setting: P. falciparum, in vitro, data from two independent assays, read-out: Average Anti-malarial Activity (concentration corresponding to 50% inhibition).

Take `CC(C)(C)c1cnnn1-c1ccc(C=Cc2ccc(C=Cc3ccc4ccccc4n3)cc2)cc1` [GR-M001]: the IC50 in series [1] (setting [4]) is greater than 20 µM. For the same molecule, the “Solubility in DMSO” value in series [2] was “*”.

With `CC(NC(=O)CN1CCCN(CC(=O)NC(C)(C)C)CC1)c1ccc2c(c1)CCCC2` (stereo not shown) [GR-M002], the values for the IC50 in series [1] (setting [5]) and in series [1] (setting [4]) were 5.38 µg/mL and 12.5 µM, respectively.

For the molecule `O=CN1CCN(CC(O)COc2ccc(OCC(O)CN3CCN(C=O)CC3)cc2)CC1` (stereo not shown) [GR-M003], in series [1] (setting [4]), the IC50 is greater than 20 µM.

For the molecule `Cc1ccc(C)c(NCC(O)COc2ccc(OCC(O)CNc3cc(C)ccc3C)cc2)c1` (stereo not shown) [GR-M004], the IC50 was 4.78 µg/mL in series [1] (setting [5]) and 10.3 µM in series [1] (setting [4]).

Consider `Cc1cccc(C)c1OCCOCC(O)CN1CCN(Cc2ccc3c(c2)OCO3)CC1` (stereo not shown) [GR-M005], for which the IC50 in series [1] (setting [5]) came out at 9.74 µg/mL; in series [1] (setting [4]), 18.9 µM.

Consider `Cc1ccc2c(c1)N(CCCC(=O)NCCCN1CCC(Cc3ccccc3)CC1)C(=O)CO2` [GR-M006], for which the IC50 in series [1] (setting [5]) was 1.63 µg/mL; in series [1] (setting [4]), 3.52 µM.

Regarding `Cc1ccc(Cn2cc(CCC(=O)NCCCN3CC(C)CC(C)C3)c3ccccc32)cc1` (stereo not shown) [GR-M007], the figures for the IC50 in series [1] (setting [5]) and in series [1] (setting [4]) were 0.446 µg/mL and 0.999 µM, respectively. Moreover, in series [3], the “Average Cytotoxicity” value was determined as 10420 ng/mL.

As for `Cc1cccc[n+]1CCCCCCCCCC[n+]1ccccc1C` [GR-M009], the IC50 in series [1] (setting [5]) amounted to 0.013 µg/mL; in series [1] (setting [4]) it was 0.027 µM.

With `CC1=C(CCC(C)N(C)Cc2ccc(OCCCN3CCCC3)cc2)C(C)(C)CCC1` (stereo not shown) [GR-M010], the IC50 was found to be 0.172 µg/mL in series [1] (setting [5]) and 0.332 µM in series [1] (setting [4]). The “Average Cytotoxicity” value in series [3] turned out to be 4860 ng/mL.

`CC(C)(C)CC(C)(C)Cc1ccc(OCCOCC[N+](C)(C)Cc2ccccc2)cc1` [GR-M011]: the IC50 came to 0.086 µg/mL in series [1] (setting [5]) and 0.185 µM in series [1] (setting [4]). For the same molecule, the “Average Cytotoxicity” value in series [3] is 3250 ng/mL.

For `COc1cc([C@@H]2c3cc4c(cc3[C@H](O)[C@H]3COC(=O)[C@H]23)OCO4)cc(OC)c1OC` [Podophyllotoxin, reference compound], the “Average Cytotoxicity” value in series [3] was determined as 9.5 ng/mL.

For `CCN(CC)CCCC(C)Nc1ccnc2cc(Cl)ccc12` (stereo not shown) [chloroquine, reference compound], the IC50 came out at 0.0042 µg/mL in series [1] (read-out: Average Anti-malarial Activity (concentration corresponding to 50% inhibition)) and 0.013 µM in series [1] (read-out: IC50 (anti-malarial activity)).
